Source: ChEMBL document CHEMBL5244281, “Tackling multidrug-resistant Staphylococcus aureus by natural products and their analogues acting as NorA efflux pump inhibitors” (Bioorg Med Chem, 2023)
In brackets after ≈: the same amount, converted by molar mass.

Experiments:
[1] = target: T1, Quinolone resistance protein NorA (Staphylococcus aureus) (UniProt P0A0J7); assay: Potentiation of ciprofloxacin-mediated inhibition of NorA efflux pump in Staphylococcus aureus 1199B overexpressing NorA efflux pump assessed as reduction in ciprofloxacin MIC (Rvb= […] ug/ml)
T1 sequence (whole entry): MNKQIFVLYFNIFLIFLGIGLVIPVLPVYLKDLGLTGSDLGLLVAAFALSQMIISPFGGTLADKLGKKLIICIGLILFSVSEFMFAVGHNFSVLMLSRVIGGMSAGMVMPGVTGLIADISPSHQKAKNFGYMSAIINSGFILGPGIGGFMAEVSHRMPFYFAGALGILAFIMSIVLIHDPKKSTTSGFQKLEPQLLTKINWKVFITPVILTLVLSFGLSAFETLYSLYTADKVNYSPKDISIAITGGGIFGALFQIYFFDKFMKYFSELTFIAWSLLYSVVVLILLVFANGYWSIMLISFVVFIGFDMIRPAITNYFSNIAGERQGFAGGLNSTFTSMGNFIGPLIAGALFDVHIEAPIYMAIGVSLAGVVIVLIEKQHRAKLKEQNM

Staphylococcus aureus [2] = assay: Antibacterial activity against norfloxacin resistant Staphylococcus aureus 1199B overexpressing NorA assessed as bacterial growth inhibition; format: functional
Staphylococcus aureus [3] = assay: Antibacterial activity against norfloxacin resistant Staphylococcus aureus 1199 assessed as bacterial growth inhibition; format: functional
Enterococcus faecium = assay: Antimicrobial activity against Enterococcus faecium ATCC 700221 assessed as bacterial growth inhibition incubated for 18 hrs by broth microdilution assay; format: functional
Enterococcus faecalis = assay: Antimicrobial activity against Enterococcus faecalis ATCC 29212 assessed as bacterial growth inhibition incubated for 18 hrs by broth microdilution assay; format: functional
Staphylococcus aureus [4] = assay: Antimicrobial activity against Staphylococcus aureus BAA-44 assessed as bacterial growth inhibition incubated for 18 hrs by broth microdilution assay; format: functional
Staphylococcus aureus [5] = assay: Antimicrobial activity against Staphylococcus aureus ATCC 29213 assessed as bacterial growth inhibition incubated for 18 hrs by broth microdilution assay; format: functional
Escherichia coli [6] = assay: Antimicrobial activity against Escherichia coli ATCC 25922 assessed as bacterial growth inhibition incubated for 18 hrs by broth microdilution assay; format: functional
Staphylococcus aureus [7] = assay: Antimicrobial activity against Staphylococcus aureus ATCC 43300 assessed as bacterial growth inhibition incubated for 18 hrs by broth microdilution assay; format: functional
Klebsiella pneumoniae = assay: Antimicrobial activity against Klebsiella pneumoniae 1213-2 assessed as bacterial growth inhibition incubated for 18 hrs by broth microdilution assay; format: functional
Staphylococcus aureus [8] = assay: Antibacterial activity against norfloxacin resistant Staphylococcus aureus IS-58 overexpressing TetK efflux pump gene assessed as bacterial growth inhibition incubated for 24 hrs by CLSI protocol based microdilution method; format: functional
Staphylococcus aureus [9] = assay: Antibacterial activity against norfloxacin resistant Staphylococcus aureus RN4220 overexpressing […] efflux pump gene assessed as bacterial growth inhibition incubated for 24 hrs by CLSI protocol based microdilution method; format: functional
Staphylococcus aureus [10] = assay: Antibacterial activity against norfloxacin resistant Staphylococcus aureus 1199B overexpressing NorA efflux pump gene assessed as bacterial growth inhibition incubated for 24 hrs by CLSI protocol based microdilution method; format: functional
Staphylococcus aureus [11] = assay: Antibacterial activity against methicillin-resistant Staphylococcus aureus 1199B overexpressing NorA gene assessed as bacterial growth inhibition; format: functional
Staphylococcus aureus [12] = assay: Synergistic antibacterial activity against Staphylococcus aureus 1199B overexpressing NorA gene assessed as fractional inhibitory concentration index at 2 ug/ml in presence of norfloxacin; format: functional; settings: dose 2 µg/ml
Candida albicans = assay: Antifungal activity against Candida albicans NEWP031 assessed as bacterial growth inhibition incubated for 24 hrs by resazurin based microdilution assay; format: functional
Staphylococcus aureus [13] = assay: Antibacterial activity against Staphylococcus aureus SA10 assessed as bacterial growth inhibition incubated for 24 hrs by resazurin based microdilution assay; format: functional
[14] = target: T1, Quinolone resistance protein NorA (Staphylococcus aureus); assay: Potentiation of EtBr-induced inhibition of NorA efflux in Staphylococcus aureus 1199B overexpressing NorA assessed as reduction in EtBr MIC at 256 ug/ml incubated for 24 hrs by resazurin based assay (Rvb= 32 ug/ml); settings: dose 256.0 µg/ml
Staphylococcus aureus [15] = assay: Antibacterial activity against Staphylococcus aureus ATCC 25923 assessed as bacterial growth inhibition incubated for 24 hrs by resazurin based microdilution assay; format: functional
[16] = target: T1, Quinolone resistance protein NorA (Staphylococcus aureus); assay: Potentiation of norfloxacin-induced inhibition of NorA efflux in Staphylococcus aureus 1199B overexpressing NorA assessed as reduction in norfloxacin MIC at 1/8 times of MIC incubated for 24 hrs by CLSI based assay (Rvb= 322.54 ug/ml)
[17] = target: Multidrug export protein MepA (Staphylococcus aureus (strain NCTC 8325)) (UniProt Q2G140); assay: Potentiation of EtBr-induced inhibition of MepA efflux in Staphylococcus aureus K2068 overexpressing MepA assessed as reduction in EtBr MIC at 1/8 times of MIC incubated for 24 hrs by CLSI based assay (Rvb= 322.54 ug/ml)
Staphylococcus aureus [18] = assay: Antibacterial activity against Staphylococcus aureus 1199 assessed as bacterial growth inhibition incubated for 24 hrs by resazurin based microdilution assay; format: functional
Staphylococcus aureus [19] = assay: Antibacterial activity against norfloxacin resistant Staphylococcus aureus 1199B overexpressing NorA assessed as bacterial growth inhibition incubated for 24 hrs by resazurin based microdilution assay; format: functional
Escherichia coli [20] = assay: Antibacterial activity against Escherichia coli ATCC […] assessed as bacterial growth inhibition incubated for 24 hrs by resazurin based microdilution assay; format: functional
[21] = target: T1, Quinolone resistance protein NorA (Staphylococcus aureus); settings: 1199B, dose 64.0 µg/ml
Staphylococcus aureus [22] = assay: Synergistic antibacterial activity against Staphylococcus aureus 1199B overexpressing NorA assessed as fractional Inhibitory concentration index at 64 ug/ml in presence of norfloxacin by broth dilution method; format: functional; settings: dose 64 µg/ml
Staphylococcus aureus [23] = assay: Antibacterial activity against tetracycline-resistant Staphylococcus aureus XU212 assessed as bacterial growth inhibition incubated for 18 hrs by MTT assay; format: functional
Staphylococcus aureus [24] = assay: Antibacterial activity against Staphylococcus aureus ATCC25923 assessed as bacterial growth inhibition incubated for 18 hrs by MTT assay; format: functional
Staphylococcus aureus [25] = assay: Antibacterial activity against Staphylococcus aureus EMRSA-16 assessed as bacterial growth inhibition incubated for 18 hrs by MTT assay; format: functional
Staphylococcus aureus [26] = assay: Antibacterial activity against Staphylococcus aureus 1199B overexpressing NorA assessed as bacterial growth inhibition incubated for 18 hrs by MTT assay; format: functional
Staphylococcus aureus [27] = assay: Antibacterial activity against Staphylococcus aureus EMRSA-15 assessed as bacterial growth inhibition incubated for 18 hrs by MTT assay; format: functional
Staphylococcus aureus [28] = assay: Antibacterial activity against Staphylococcus aureus RN4220 assessed as bacterial growth inhibition incubated for 18 hrs by MTT assay; format: functional
[29] = target: T1, Quinolone resistance protein NorA (Staphylococcus aureus); settings: 1199B, dose 128.0 µg/ml, time 24.0 hrs
[30] = target: T1, Quinolone resistance protein NorA (Staphylococcus aureus); assay: Potentiation of EtBr-induced inhibition of NorA efflux pump in Staphylococcus aureus 1199B overexpressing NorA efflux pump assessed as reduction in EtBr MIC at 1/8 times of MIC by resazurin based assay (Rvb= 512 ug/ml)
Escherichia coli [31] = assay: Potentiation of gentamicin-induced antibacterial activity against Escherichia coli 06 assessed as gentamicin MIC at 1/8 times of MIC (Rvb= 322 ug/ml); format: functional

Structure (SMILES): CCOC(=O)/C=C/C(C)=C/c1ccc2c(c1)CCC(C)(C)O2
- MIC [1]: 3.12 µg/mL

Structure (SMILES): C=C1CCC2CC1C2(C)C (stereo not drawn) [BETA-PINENE]
- MIC (Staphylococcus aureus [2]): > 1020 µg/mL
- MIC (Staphylococcus aureus [3]): > 1020 µg/mL

Structure (SMILES): CN(CC[C@H](N)CC(=O)N[C@H]1C=C[C@H](n2ccc(N)nc2=O)O[C@@H]1C(=O)O)C(=N)N [BLASTICIDIN_S]
- MIC (Enterococcus faecium): 200 µg/mL (≈ 473 µM)
- MIC (Enterococcus faecalis): 25 µg/mL (≈ 59.2 µM)
- MIC (Staphylococcus aureus [4]): 25 µg/mL (≈ 59.2 µM)
- MIC (Staphylococcus aureus [5]): 50 µg/mL (≈ 118 µM)
- MIC (Escherichia coli [6]): 100 µg/mL (≈ 237 µM)
- MIC (Staphylococcus aureus [7]): 100 µg/mL (≈ 237 µM)
- MIC (Klebsiella pneumoniae): 50 µg/mL (≈ 118 µM)

Structure (SMILES): O=C(O)/C=C/c1ccc(O)c(O)c1 [CAFFEIC ACID]
- MIC (Staphylococcus aureus [8]): 1020 µg/mL (≈ 5680 µM)
- MIC (Staphylococcus aureus [9]): 1020 µg/mL (≈ 5680 µM)
- MIC (Staphylococcus aureus [10]): 1020 µg/mL (≈ 5680 µM)

Structure (SMILES): COc1cc(-c2cc(=O)c3c(O)cc(O)cc3o2)ccc1O [CHRYSOERIOL]
- MIC (Staphylococcus aureus [11]): 256 µg/mL (≈ 853 µM)
- fractional inhibitory concentration index (FICI) (Staphylococcus aureus [12]): 0.266

Structure (SMILES): C=CCc1ccc(OC)cc1 [ESTRAGOLE]
- MIC (Candida albicans): 2050 µg/mL (≈ 13800 µM)
- MIC (Staphylococcus aureus [13]): ≥ 1020 µg/mL
- MIC [14]: 16 µg/mL
- MIC (Staphylococcus aureus [15]): ≥ 1020 µg/mL
- MIC [16]: 256 µg/mL
- MIC [17]: 256 µg/mL
- MIC (Staphylococcus aureus [18]): ≥ 1020 µg/mL
- MIC (Staphylococcus aureus [19]): ≥ 1020 µg/mL
- MIC (Escherichia coli [20]): 2050 µg/mL (≈ 13800 µM)

Structure (SMILES): O=C(O)c1cc(O)c(O)c(O)c1 [GALLIC ACID]
- MIC (Staphylococcus aureus [8]): 1020 µg/mL (≈ 6020 µM)
- MIC (Staphylococcus aureus [9]): 1020 µg/mL (≈ 6020 µM)
- MIC (Staphylococcus aureus [10]): 1020 µg/mL (≈ 6020 µM)

Structure (SMILES): O=c1c(-c2ccc(O)cc2)coc2cc(O)cc(O)c12 [GENISTEIN]
- MIC [21]: 16 µg/mL (≈ 59.2 µM)
- fractional inhibitory concentration index (FICI) (Staphylococcus aureus [22]): 0.38
- MIC (Staphylococcus aureus [23]): 32 µg/mL (≈ 118 µM)
- MIC (Staphylococcus aureus [24]): 32 µg/mL (≈ 118 µM)
- MIC (Staphylococcus aureus [25]): 8 µg/mL (≈ 29.6 µM)
- MIC (Staphylococcus aureus [26]): 32 µg/mL (≈ 118 µM)
- MIC (Staphylococcus aureus [27]): 32 µg/mL (≈ 118 µM)
- MIC (Staphylococcus aureus [28]): 32 µg/mL (≈ 118 µM)

Structure (SMILES): CC(C)=CCC/C(C)=C\CO [NEROL]
- MIC (Candida albicans): 212 µg/mL (≈ 1370 µM)
- MIC (Staphylococcus aureus [13]): ≥ 1020 µg/mL
- MIC [14]: 16 µg/mL
- MIC (Staphylococcus aureus [15]): ≥ 1020 µg/mL
- MIC (Staphylococcus aureus [18]): ≥ 1020 µg/mL
- MIC (Staphylococcus aureus [19]): ≥ 1020 µg/mL
- MIC [29]: 32 µg/mL (≈ 207 µM)
- MIC (Escherichia coli [20]): 512 µg/mL (≈ 3320 µM)

Structure (SMILES): COc1cc2oc(-c3ccc(O)cc3)c(OC)c(=O)c2c(O)c1OC [PENDULETIN]
- MIC (Staphylococcus aureus [11]): 256 µg/mL (≈ 743 µM)
- fractional inhibitory concentration index (FICI) (Staphylococcus aureus [12]): 0.079

Structure (SMILES): CC1(C)CC[C@]2(C)CC[C@]3(C)C(=CC[C@@H]4[C@@]5(C)CC[C@H](O)C(C)(C)[C@@H]5CC[C@]43C)[C@@H]2C1 [beta-AMYRIN]
- MIC [30]: 406 µg/mL
- MIC (Escherichia coli [31]): 203 µg/mL
